Laboratory results taken from patent US11059827B2, “Compounds and compositions useful for treating disorders related to NTRK” (Blueprint Medicines Corporation, priority 2015, dated 2021).

Tests used:
[1] = tested on: KM12 wild type colon carcinoma cell line harboring the TPM3-NTRK1 fusion protein; assay: NTRK wild type cellular assay (KM12, CellTiter-Glo); assay type: cell-based; settings: KM12 wild type cells, 72 hr
Description: (§1) NTRK Wild Type and G595R Mutant Cellular Assays Protocol
(§2) KM12 wild type colon carcinoma cell line harboring the TPM3-NTRK1 fusion protein was obtained from the National Cancer Institute (NCI). This line has been previously shown to be dependent upon the NTRK activity derived from the NTRK fusion protein for growth and survival. […] Cells were first plated in 384-well plates at 1000 cells/well in complete media (10% FBS and 1% pen/strep) and incubated overnight at 37° C. Cells were then dosed with test articles at varying concentrations using the Bravo liquid handling system. Concentrations ranged from 25 uM down to […] (4-fold dilutions, 10 concentrations total). Each compound was run in duplicate per plate. DMSO and staurosporine (25 uM) were included on each plate as negative and positive controls for growth inhibition. 72 hr after dosing, assay plates were developed using CellTiter-Glo (Promega) and resultant luminescence was read on the Envision plate reader. IC50 determinations were calculated using a 4-parameter curve fitting algorithm

[2] = tested on: KM12 Cliff (G595R) cell line; assay: NTRK G595R mutant cellular assay (KM12 Cliff, CellTiter-Glo); assay type: cell-based; settings: KM12 Cliff (G595R) cells, 72 hr
Description: as §1, §2

IC50 [1]: 10 to 100 nM
SMILES: N#Cc1cnn2cc(F)c(N3C[C@@H](F)C[C@@H]3c3cc(F)cc(C(N)=O)c3)nc12 [Compound 15]
IC50 [2]: 10 to 100 nM
